Literature values in US12295943B2 (Closed Loop Medicine Ltd., priority 2023, dated 2025).
Read-outs that look alike come from different tables or passages of the source. Each block holds one compound with its values, some of them ahead of it.

Columns and labels:
[1] = in vivo
[2] = test system: metabolic enzymes or transport mechanisms; settings: in vitro
[3] = test system: patients with nonvalvular AF
[4] = not given; remark: listed apart in the source
CYP3A4 = CYP3A4 (Homo sapiens, UniProt P08684); settings: CYP3A4, linked with P-glycoprotein transporter
[5] = for trough plasma level range: steady state
[6] = not given; remark: listed apart in the source
[7] = not given; remark: listed apart in the source
stroke = settings: AF patients
[8] = high body weight (≥120 kg) vs reference group
[9] = low body weight (≤50 kg) vs reference group (65-85 kg)

CYP3A4, sequence (P08684 whole entry): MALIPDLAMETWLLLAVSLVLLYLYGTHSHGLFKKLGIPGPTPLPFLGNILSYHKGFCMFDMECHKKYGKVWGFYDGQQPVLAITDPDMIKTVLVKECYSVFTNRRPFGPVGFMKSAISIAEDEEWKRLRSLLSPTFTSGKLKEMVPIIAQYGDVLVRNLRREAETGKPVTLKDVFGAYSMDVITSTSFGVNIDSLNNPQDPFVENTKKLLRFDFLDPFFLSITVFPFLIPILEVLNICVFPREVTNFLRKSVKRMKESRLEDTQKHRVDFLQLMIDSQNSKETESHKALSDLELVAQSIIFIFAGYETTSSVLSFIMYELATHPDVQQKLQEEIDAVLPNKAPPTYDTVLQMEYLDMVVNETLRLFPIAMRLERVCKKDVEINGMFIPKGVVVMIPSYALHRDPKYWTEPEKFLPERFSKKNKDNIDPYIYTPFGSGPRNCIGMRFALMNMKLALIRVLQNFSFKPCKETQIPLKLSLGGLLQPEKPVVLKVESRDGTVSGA

SMILES: COc1ccc(-n2nc(C(N)=O)c3c2C(=O)N(c2ccc(N4CCCCC4=O)cc2)CC3)cc1 [Apixaban]
principle side effect [1]: increased bleeding tendency, with undesired haemorrhage, sometimes fatal
inhibition or induction of metabolic enzymes or transport mechanisms [2]: does not inhibit or induce
observed drug plasma levels lower in the evening than in the morning (evening versus morning): ~50%
coefficient of variance for AUC of the plasma level time profile (healthy human volunteers): ~30%
coefficient of variance for Cmax (healthy human volunteers): ~30%
direct intestinal excretion into the faeces, unchanged drug (human, in vivo): 34%
dose excreted by renal route (human, in vivo): 20-25%
elimination via metabolism (human, in vivo): ~20%
renal clearance (human, in vivo): 15 mL/min
renal clearance as share of GFR (human, in vivo): ~12 % of GFR
total body clearance (human, in vivo): 50 mL/min
total body clearance as share of liver blood flow (human, in vivo): ~3 % liver blood flow
absolute oral bioavailability (human, in vivo, po): ~50%
half-life after iv or oral solution (iv or oral solution): ~5 h
time of maximum concentration after oral administration (oral, without food): 3 to 4 h
time of maximum concentration, range (oral, without food): 1 to 6 h
increase in levels at steady state compared to the first dose (repeated administration): ~65%
time to steady state after repeated administration (repeated administration): ≤ 3 days
delay of maximum concentration by food (with food): ~1 h
time of maximum concentration with food, range (with food): 1 to 9 h
efficacy compared with warfarin [3]: superior to warfarin
risk of intracranial bleeds compared with warfarin [3]: small reduction
increase in mean apixaban AUC 0-∞ ([4]; with Clarithromycin): 1.6 fold
increase in mean apixaban Cmax ([4]; with Clarithromycin): 1.3 fold
increase in AUC ([4]; with Clarithromycin (Table 2)): ~50% increase in Cmax and AUC
increase in Cmax ([4]; with Clarithromycin (Table 2)): ~50% increase in Cmax and AUC
increase in AUC ([4]; with Diltiazem): ~40% increase in AUC
increase in AUC ([4]; with Ketaconazole or other CYP 3A4/PgP inhibitors): ~100% increase in AUC
increase in exposure (drug levels) ([4]; with Ketoconazole (CYP 3A4 inhibitor)): ~2 fold
decrease in AUC ([4]; with Riampin or other CYP 3A4 inducers): ~50% decrease in AUC
decrease in exposure ([4]; with rifampicin): ~50%
substrate status (CYP3A4): substrate primarily for CYP3A4
trough plasma level range ([5]; 2.5 mg dose): 20 to 180 ng/mL
trough plasma level range ([5]; 5 mg dose): 10 to 310 ng/mL
variability in drug plasma levels across the population for a given dose ([5]; in vivo): 6-10 FOLD
lower apixaban AUC0-∞ [6, 8]: ~23%
lower apixaban Cmax [6, 8]: approximately 31%
higher AUC0-∞ [6, 9]: ~20%
higher maximum apixaban plasma concentration (Cmax) [6, 9]: approximately 27%
AGEP ([7]; age coefficient on non-renal clearance, AGEREF 60 years): 0.267
VC/F ([7]; apparent central volume of distribution): 32.1 L
Q/F ([7]; apparent inter-compartmental clearance): 1.62 L/h
VP/F ([7]; apparent peripheral volume of distribution): 19.8 L
CLNR/F (Ref) ([7]; non-renal component of apparent clearance): 2.52 L/h
θ1, θ2 ([7]; power coefficients for CrCL versus CL/F): 1.0
┌ ([7]; shape parameter of dose versus relative bioavailability): 0.853
WTP ([7]; weight coefficient on Vc/F, WTref 85.0 kg): 0.523

share cleared through the kidneys (human, in vivo): ~80%
SMILES: [H]/N=C(/N)c1ccc(NCc2nc3cc(C(=O)N(CCC(=O)O)c4ccccn4)ccc3n2C)cc1 [dabigatran]

SMILES: CC(=O)CC(c1ccccc1)c1c(O)c2ccccc2oc1=O (stereo not shown) [warfarin]
reduction of stroke (stroke): about 60%
